Test results as given in US20100081699A1, “YEAST PLATFORM CONSTRUCTION AND SCREENING METHODS” (Bioalvo-Servicos ,Investigacao e Desenvolvimento em …, priority 2006, published 2010).

Molecular target: T1, human IDO (Homo sapiens, UniProt P14902)
T1 construct: The IDO gene was obtained from the IMAGE consortium as a 1586 bps fragment cloned in the vector pCMV-SPORT6; expressed in transfected cells
Assay: Growth inhibition of BLOCKADE cells with small molecule compounds (life/death screen)
Type: cell-based
Settings: S. cerevisiae BLOCKADE cells, minimum medium with 2% galactose, 10, 5, 2.5 and 1 μM compound, 3 days at 30° C.; WT cells at 10 μM as cytotoxicity control
Protocol: Cells were pre-grown on a mixture of 1.2% glucose and 0.8% galactose until reaching early exponential phase (OD=1-2). The cells were washed three times with water and then resuspended in fresh selective medium containing 2% galactose, in order to fully activate IDO expression. Cells were dispensed into 96-well plates and inhibitor compounds were added to the cell culture at concentrations of 10, 5, 2.5 and 1 μM. Growth was monitored during 3 days at 30° C. under agitation. Compounds were selected from diverse libraries.
IDO inhibitory compounds were identified as those that repressed the growth of the cells. Possible cytotoxic effects of the compounds were identified by growing the wild type strain in the same condition at a concentration of 10 μM. Compounds inhibiting both BLOCKADE cells and wild type strains were considered as cytotoxic and therefore not selected for further development. Compounds inhibiting only BLOCKADE cells, but not the wild type strains were considered as hits, potential IDO inhibitory compounds.

T1 sequence (P14902 whole entry, the tested form may be a part): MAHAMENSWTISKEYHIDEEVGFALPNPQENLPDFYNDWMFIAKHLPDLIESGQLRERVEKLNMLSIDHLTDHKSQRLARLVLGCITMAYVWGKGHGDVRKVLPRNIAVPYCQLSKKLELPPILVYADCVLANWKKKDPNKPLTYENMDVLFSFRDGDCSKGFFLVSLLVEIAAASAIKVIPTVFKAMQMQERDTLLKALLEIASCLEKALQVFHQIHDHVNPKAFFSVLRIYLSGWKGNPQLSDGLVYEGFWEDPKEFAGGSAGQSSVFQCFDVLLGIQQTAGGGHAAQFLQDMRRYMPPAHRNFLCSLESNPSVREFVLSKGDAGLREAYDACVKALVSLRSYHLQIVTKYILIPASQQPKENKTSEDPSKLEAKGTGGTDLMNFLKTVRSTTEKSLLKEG

**Q.** Which “Inhibition of growth of BLOCKADE cells” value does the source give for `O=C(O)CCn1c2ccc(Br)cc2c2cc(Br)ccc21` [BLK200769] here?
**A.** inhibition
